Test results taken from patent US20230241023A1, “STABILIZATION OF 1,2,4-TRIOXANE COMPOUNDS BY CHLOROGENIC ACIDS” (Artemiflow GmbH, priority 2020, published 2023).

Test: Stability of artemisinin in presence of additives (heating in aqueous solution with glucose, 1H NMR quantification)
Type: physicochemical
Conditions: glucose 1 mol equivalent, 93° C. for 90 minutes, open to the atmosphere
Source text: Solvents were obtained from commercial suppliers and used without further purification. Dried leaves of Artemisia annua were obtained from ArtemiLife Corp. and Artemisinin was previously prepared and purified by crystallization using the protocols detailed in Horváth, Z.; Horosanskaia, E.; Lee, J. W.; Lorenz, H.; Gilmore, K.; Seeberger, P. H.; Seidel-Morgenstern, A. Recovery of Artemisinin from a Complex Reaction Mixture Using Continuous Chromatography and Crystallization. Org. Process Res. Dev. 2015, 19, 624-634. The Artemisinin crystals obtained thereby were ground prior to use.
Ground coffee used in extractions was preground 100% Arabica beans from Café Intención. Coffee was prepared in a Rowenta C T 3818 Milano coffee maker using size 4 coffee filters (Melitta brand). Coffee beans (100% Arabica) were preground from. 100 g of ground coffee was added to the cone coffee filter in the machine and 1350 mL of water used to make the coffee using the single setting. Coffee was then transferred to a thermos, stored at room temperature, and used without further modification.
Two solvents were tested, tap water and premade black coffee. […] All mixtures were heated to 93° C. for 90 minutes in 10 mL glass vials open to the atmosphere. Halfway through heating, 1-2 mL of tap water was added to compensate for evaporation. […]

clean loss of artemisinin (1H NMR) (Example 1 (for comparison): 5 mL tap water): 32%
clean loss of artemisinin (1H NMR) (Example 2 (inventive): 5 mL premade black coffee (source of chlorogenic acids)): 19%
Compound: C[C@@H]1CC[C@H]2[C@@H](C)C(=O)O[C@@H]3O[C@@]4(C)CC[C@@H]1[C@]32OO4 [artemisinin]
